Assay results from patent US5272175A, “Substituted tyrosyl diamide compounds” (priority 1992, dated 1993).
Counter-ions that a name gives are not always drawn. Like-named read-outs stand apart in the source and are kept apart here.

How the values were obtained:
[1] = test system: mice; conditions: general statement on both tests; cited from earlier work
[2] = test system: mice; conditions: general statement on both tests; cited from earlier work; remark: listed apart in the source
[3] = test system: mice; experiment: Hot Plate Assay (Hind Paw Lick Assay); assay type: in vivo, Male Charles River albino mice; conditions: Mus musculus, sc, subcutaneous, 55 degrees Celsius, dose producing half maximum possible increase in latency (to 25 seconds)
Source text: (§1) The "Tail Flick Assay" and the "Hot Plate Assay" (also known as the "Hind Paw Lick Assay") use thermal pain of transient duration, and are tests in which the pain threshold of the mice or rats being analyzed has not been altered. They are useful for evaluating the ability of a compound or drug to increase the animal's pain threshold (i.e. prolong response latencies), rather than to restore normal thresholds.
(§2) The heat-induced response to the Tail Flick Assay is a reflex reaction mediated at the level of the spinal cord. The heat-induced response to the Hot Plate Assay, however, is a more complex behavior requiring integration at higher centers in the brain. […]
(§3) Tail flick response latencies (defined as the time that elapsed between the onset of a high intensity beam of light and the reflex removal of the mouse's tail) and hot plate response latencies (defined as the time that elapsed between the placement of a mouse on a 55 degrees Celsius surface and a lick of the hind paw) were separately, but consecutively, measured before (baseline) and again at fixed intervals after subcutaneous administration of the Test Tyrosyl Diamide Compound, or after the administration of saline (controls). […] The significance of any increase in tail flick response latency or hot plate response latency is determined using analyses of variance. […]

[4] = test system: mice; experiment: Tail Flick Assay; assay type: in vivo, Male Charles River albino mice; conditions: Mus musculus, sc, subcutaneous, dose producing half maximum possible increase in latency (to 7.5 seconds)
Source text: as §1, §2, §3

[5] = molecular target: μ opioid receptors (Rattus norvegicus, UniProt P33535); experiment: Opiate Binding Assay, displacement of 3[H]-DAMPGO from μ receptors
Chain of μ opioid receptors (P33535 whole entry): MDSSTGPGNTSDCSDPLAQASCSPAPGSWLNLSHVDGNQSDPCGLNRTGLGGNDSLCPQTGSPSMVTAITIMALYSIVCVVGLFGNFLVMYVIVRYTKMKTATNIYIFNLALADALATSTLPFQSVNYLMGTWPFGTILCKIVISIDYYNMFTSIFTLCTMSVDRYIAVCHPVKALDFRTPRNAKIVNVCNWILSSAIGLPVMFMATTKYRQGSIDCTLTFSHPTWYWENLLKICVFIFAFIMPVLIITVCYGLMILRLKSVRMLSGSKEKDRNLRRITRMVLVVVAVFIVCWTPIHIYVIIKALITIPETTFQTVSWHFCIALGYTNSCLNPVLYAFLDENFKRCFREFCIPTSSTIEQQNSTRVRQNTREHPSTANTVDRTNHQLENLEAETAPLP

[6] = molecular target: δ opioid receptors (Rattus norvegicus, UniProt P33533); experiment: Opiate Binding Assay, displacement of 3[H]-DSLET from δ receptors; conditions: for Mean IC50 μ/δ Ratio: ratio of mean IC50 values for μ and δ, above 1.0 = more δ specific
Chain of δ opioid receptors (P33533 whole entry): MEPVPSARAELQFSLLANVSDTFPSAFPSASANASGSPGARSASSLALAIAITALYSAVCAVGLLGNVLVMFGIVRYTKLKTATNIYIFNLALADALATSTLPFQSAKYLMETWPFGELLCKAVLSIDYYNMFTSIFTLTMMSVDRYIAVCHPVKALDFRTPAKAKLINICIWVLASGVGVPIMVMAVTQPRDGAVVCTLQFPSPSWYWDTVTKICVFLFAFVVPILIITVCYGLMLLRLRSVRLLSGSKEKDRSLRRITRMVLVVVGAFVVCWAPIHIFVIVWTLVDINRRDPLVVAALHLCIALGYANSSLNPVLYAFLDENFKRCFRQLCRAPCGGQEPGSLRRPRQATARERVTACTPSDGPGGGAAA

[7] = test system: mice; experiment: Writhing Assay (phenylbenzoquinone (PBQ)-induced writhing), analgesic activity; assay type: in vivo, CD Charles River mice; conditions: for ED50: Mus musculus, 50% of mice with writhes <= half control median
Source text: The "Writhing Assay" is one of the most widely-used experimental procedures for measuring the analgesic activity of different narcotic and nonnarcotic analgesic agents, and involves the continuous, chemically-induced pain of visceral origin to an animal, such as a mouse or rat. [Gyires et al., Arch. int. Pharmacodyn, 267, 131-140 (1984); C. Vander Wende et al., Fed. Proc., 15, 494 (1956); Koster et al., Fed. Proc., 18, 412 (1959); and Witken et al., J. Pharmacol. Exp. Ther., 133, 400-408 (1961).] Chemicals which may be used to induce this pain include phenylbenzoquinone (PBQ) and acetic acid. As a result of the chemical irritation to the animal, a characteristic stretching and writhing of the animal (dorsiflexion of the animal's back, extension of its hindlimbs and the strong contraction of its abdominal musculature) will generally occur. […] Drugs which reduce the number of writhes of the animal appear to restore the normal nociceptive threshold of the animal.
This assay was conducted generally in the manner described by R. I. Taber, "Predictive Value of Analgesic Assays in Mice and Rats," Advances in Biochemical Phychopharmacology, 8, 191 (1974).
Two hundred CD Charles River mice, weighing 20 to 30 grams, were used in this assay.
Twenty-five minutes after subcutaneous administration, and fifteen minutes after oral administration, to the mice of 10 mg per kilogram (mpk) of body weight of either a tyrosyl diamide compound of the invention (hereinafter "test compound"), or of the Jacobson Compound, 0.1 mL per 10 g of body weight of a 0.025% w/v solution of phenylbenzoquinone (PBQ) was injected intraperitoneally into each mouse. Some mice were given saline in place of a test compound, or of the Jacobson Compound, and were used as a control group.
Five minutes later, each mouse was individually placed into a glass beaker for observation, and the number of writhes occurring during the following ten-minute period was counted.
A compound was considered to be "active" (to have produced analgesia in a mouse) if, after the administration of 10 mg per kilogram (mpk) of body weight of the compound to the mouse, the number of writhes elicited by a mouse injected with PBQ was equal to, or less than, one-half the median number of writhes recorded for the saline-treated control group of mice that day, as described by R. I. Taber, supra.
The standard initial screening dose of a test compound employed in this assay was 10 mpk […] for both routes of administration. If this initial screening dose of the compound produced analgesia in seven of ten mice, then the effect of additional doses of the compound on the writhing response was evaluated, and then the ED50 value (that dose of a compound which produced analgesia in 50% of the mice to which the compound was administered) was calculated. A maximum likelihood function was used to determine the ED50 value. (The slopes of the dose-response curves for the compounds analyzed were compared as described by Tallarida and Murray, Manual of Pharmacologic Calculations, Page 1 (Springer Verlag, N.Y., 1981)).

[8] = test system: brain opioid receptor sites; conditions: cited from earlier work
[9] = test system: opioid activity; conditions: cited from earlier work
[10] = 0.25 h, oral, PBQ i.p. 15 min after compound, read-out: ED50, Writhing Assay, Oral (p.o.)
[11] = sc, 25 min, subcutaneous, PBQ i.p. 25 min after compound, read-out: ED50, Writhing Assay, Subcutaneous (S.C.)

Compound: COc1ccc2c3c1O[C@H]1[C@@H](O)C=C[C@H]4[C@@H](C2)N(C)CC[C@@]341 [codeine]
- activity in Hot Plate Assay [1]: active in both of these tests
- activity in Tail Flick Assay [2]: active in both of these tests

Compound: CC(=O)N[C@@H](Cc1ccccc1)C(=O)NCC(C)(C)NC(=O)[C@@H](N)Cc1c(C)cc(O)cc1C [Example 47, αS-(Acetylamino)-N-[2-[[[2S-amino-3-(4-hydroxy-2,6-dimethylphenyl) -1-oxopropyl]amino]-2-methylpropyl]-benzenepropanamide, monohydrochloride]
- ED50 [3]: 2.4 mg/kg
- ED50 [4]: 1.9 mg/kg
- IC50 [5]: 0.4 nM
- IC50 [6]: 0.3 nM
- Mean IC50 μ/δ Ratio [6]: 1.3
- potency rank in the Writhing Assay [7]: most potent compound of the invention tested
- ED50 [7, 10]: 0.6 mg/kg
- ED50 [7, 11]: 0.2 mg/kg
- potency relative to the Jacobson Compound, Writhing Assay, oral ([7]; oral): seven times more potent
- potency relative to the Jacobson Compound, Writhing Assay, subcutaneous ([7]; subcutaneous): eight times more potent

Compound: CC(=O)N[C@@H](Cc1c(C)cccc1C)C(=O)NCCNC(=O)[C@@H](N)Cc1c(C)cc(O)cc1C [Example 52, αS-(Acetylamino)-N-[2-[[2S-amino-3-(4-hydroxy-2,6-dimethylphenyl)-1-oxopropyl]amino]ethyl]-2,6-dimethylbenzeneoropanamide, hydrochloride]
- IC50 [5]: 0.6 nM
- IC50 [6]: 32 nM
- ED50 [7, 11]: 5 mg/kg

Compound: CC(=O)N[C@@H](CCc1ccccc1)C(=O)NCC(C)(C)NC(=O)[C@@H](N)Cc1c(C)cc(O)cc1C [Example 18, αS-(acetylamino)-N-[2-[[2S-amino-3-(4-hydroxy-2,6-dimethylohenyl)-1-oxopropyl]amino]-2-methyloropyl]-benzenebutanamide, hydrochloride]
- IC50 [5]: 0.33 nM
- IC50 [6]: 4.7 nM
- Mean IC50 μ/δ Ratio [6]: 0.07
- ED50 [7, 11]: 5 mg/kg

Compound: CN1CC[C@]23c4c5ccc(O)c4O[C@H]2[C@@H](O)C=C[C@H]3[C@H]1C5 [morphine]
- activity in Hot Plate Assay [1]: active in both of these tests
- activity in Tail Flick Assay [2]: active in both of these tests

Compound: CC(=O)N[C@@H](Cc1ccccc1)C(=O)NCC(C)(C)NC(=O)[C@@H](N)Cc1c(C)cc(OC(C)=O)cc1C [Example 16, αS-(acetylamino)-N-2-[2-[[4-(acetyloxy)-2,6-dimethylphenyl]-2S-amino-1-oxopropyl]amino]-2-methylpropyl]benzenepropanamide, hydrochloride]
- IC50 ([5]; read-out: Mean IC50 Value, μ, rat forebrain membranes, 3[H]-DAMPGO 2.0 nM, 37° C., pH 7.4): 0.51 nM
- Mean IC50 μ/δ Ratio [6]: 0.7
- IC50 ([6]; read-out: Mean IC50 Value, δ, rat forebrain membranes, 3[H]-DSLET 1.0 nM, 37° C., pH 7.4): 0.78 nM
- ED50 [7, 11]: 5 mg/kg

Compound: CSCC[C@H](NC(=O)[C@H](Cc1ccccc1)NC(=O)CNC(=O)CNC(=O)[C@@H](N)Cc1ccc(O)cc1)C(=O)O [methionine enkephalin, H2 N-Tyr-Gly-Gly-Phe-Met-OH]
- binding to opiate / brain opioid receptor sites [8]: bind to the same receptor sites as do the opiates
- opioid / morphine-like activity [9]: some weak morphine-like actions

Compound: Cc1cc(CC(=O)O)n(C)c1C(=O)c1ccc(Cl)cc1 [Zomax]
- activity in Hot Plate Assay [1]: little activity
- activity in Tail Flick Assay [2]: little activity

Compound: CC(=O)Oc1ccccc1C(=O)O [aspirin]
- activity in Hot Plate Assay [1]: little activity
- activity in Tail Flick Assay [2]: little activity

Compound: Cc1cc(O)cc(C)c1C[C@H](N)C(=O)NC(C)(C)CNC(=O)[C@H](Cc1ccccc1)NC(=O)OCc1ccccc1 [Example 10, Phenylmethyl[1S-[[2-[[2S-amino-3-(4-hydroxy-2,6-dimethylohenyl)-1-oxopropyl]amino]-2-methylpropyl]-amino]carbonyl]-2-phenylethyl]carbamate, monohydrochloride]
- IC50 [5]: 3.3 nM
- IC50 [6]: 4 nM
- Mean IC50 μ/δ Ratio [6]: 0.8
- ED50 [7, 11]: 5 mg/kg

Compound: CNC(=O)N[C@@H](Cc1ccccc1)C(=O)NCC(C)(C)NC(=O)[C@@H](N)Cc1c(C)cc(O)cc1C [Example 37, αS-amino-N-1,1-dimethyl-2-[2S-[[(methylamino)carbonyl]amino]-1-oxo-3-phenylpropyl]amino]ethyl]-4-hydroxy-2,6-dimethylbenzeneoropanamide, monohydrochloride]
- IC50 [5]: < 10 nM
- IC50 [6]: ~2 nM
- ED50 [7, 11]: 5 mg/kg

Compound: CC(C)C[C@H](NC(=O)[C@H](Cc1ccccc1)NC(=O)CNC(=O)CNC(=O)[C@@H](N)Cc1ccc(O)cc1)C(=O)O [leucine enkephalin, H2 N-Tyr-Gly-Gly-Phe-Leu-OH]
- binding to opiate / brain opioid receptor sites [8]: bind to the same receptor sites as do the opiates
- opioid / morphine-like activity [9]: some weak morphine-like actions

Compound: CC(=O)N[C@@H](Cc1ccccc1)C(=O)NCC(C)(C)NC(=O)[C@@H](N)Cc1ccc(O)cc1 [Jacobson Compound, reference compound]
- IC50 [5]: 0.6 nM
- IC50 [6]: 2 nM
- Mean IC50 μ/δ Ratio [6]: 0.3
- ED50 [7, 10]: 4.1 mg/kg
- ED50 [7, 11]: 1.6 mg/kg
